Legend:
TDO (A172 cells) = target: T1, TDO (A172 cells) (Homo sapiens, UniProt P48775); experiment: TDO cell-based assay (A172), kynurenine production; conditions: A172 human glioblastoma cells, 500 μM L-Trp, 48 h, kynurenine by absorbance at 490 nm
T1 construct: This assay utilised cancer cells which expressed either TDO or IDO; host or cells: A172 human glioblastoma cells
Description: (§1) Two different types of assay were employed: 1. A TDO and IDO biochemical coupled assay which utilised recombinantly produced and purified TDO and IDO enzymes in combination with the enzyme formamidase. This coupled enzyme system allowed conversion of N-formylkynurenine produced by TDO or IDO activity to kynurenine which was then quantified by fluorescence following addition of Erhlich's Reagent. 2. A cell-based assay for detecting the effect of test compounds on kynurenine production in two different cancer cell types. This assay utilised cancer cells which expressed either TDO or IDO and as such was used as a means of testing compound activity at these two enzymes in a cell-based context. The protocols for these are set out below.
(§2) A172 human glioblastoma (ATCC) were grown in DMEM+2 mM L-glutamine medium supplemented with 10% foetal bovine serum and SKOV-3 ovary adenocarcinoma (ATCC) cells were grown in McCoys 5A+L-glutamax medium supplemented with 15% foetal bovine serum. On the day of assay, cells were detached using trypsin-EDTA (0.25% v/v), re-suspended in assay media (RPMI 1640 phenol red free+L-glutamine supplemented with 10% dialysed foetal bovine serum). A172 cells were seeded at 30K cells per well and SKOV-3 cells at 40K cells per well into 96-well plates containing test samples/vehicle control together with 500 μM L-Trp. Cells were then incubated for 48 h at 37° C., 5% CO2. In SK-OV-3 cells, IFNγ was also added at 500 ng/ml for the 48 h incubation in order to induce expression of IDO. Plates were centrifuged and the supernatant was removed and incubated for 5 min in the presence of 1% Erhlich's reagent. Kynurenine levels were then quantified by measuring absorbance at 490 nm.

IDO (SKOV-3 cells) = target: T2, IDO (SKOV-3 cells) (Homo sapiens, UniProt P14902); experiment: IDO cell-based assay (SKOV-3, IFNγ-induced), kynurenine production; conditions: SKOV-3 ovary adenocarcinoma cells, IFNγ 500 ng/ml, 500 μM L-Trp, 48 h, kynurenine by absorbance at 490 nm
T2 construct: This assay utilised cancer cells which expressed either TDO or IDO; host or cells: SKOV-3 ovary adenocarcinoma cells, IFNγ-induced
T2 sequence (P14902 whole entry): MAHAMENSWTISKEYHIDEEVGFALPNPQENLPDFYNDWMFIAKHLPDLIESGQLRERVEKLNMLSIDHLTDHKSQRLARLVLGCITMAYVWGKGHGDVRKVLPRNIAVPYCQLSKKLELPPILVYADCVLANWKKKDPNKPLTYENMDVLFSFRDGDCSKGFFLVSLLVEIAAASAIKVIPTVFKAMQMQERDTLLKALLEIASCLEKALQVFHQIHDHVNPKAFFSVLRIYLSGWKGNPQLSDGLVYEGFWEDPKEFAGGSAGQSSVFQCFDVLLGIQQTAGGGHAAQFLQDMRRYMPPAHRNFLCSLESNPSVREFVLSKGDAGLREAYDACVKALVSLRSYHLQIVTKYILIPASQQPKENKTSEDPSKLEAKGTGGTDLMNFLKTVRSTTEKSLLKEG
Description: as §1, §2

T1 sequence (P48775 whole entry): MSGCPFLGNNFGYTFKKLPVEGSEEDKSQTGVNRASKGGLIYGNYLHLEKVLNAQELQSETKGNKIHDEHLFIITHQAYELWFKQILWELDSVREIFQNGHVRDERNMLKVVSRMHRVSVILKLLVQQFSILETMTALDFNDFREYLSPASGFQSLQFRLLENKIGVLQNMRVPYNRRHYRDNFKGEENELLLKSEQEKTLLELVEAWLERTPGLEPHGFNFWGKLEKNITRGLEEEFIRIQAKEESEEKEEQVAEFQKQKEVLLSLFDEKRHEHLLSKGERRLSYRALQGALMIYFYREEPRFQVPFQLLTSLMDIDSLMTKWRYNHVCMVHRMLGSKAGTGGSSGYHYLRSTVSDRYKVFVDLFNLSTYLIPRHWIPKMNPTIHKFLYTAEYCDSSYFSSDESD

Compound | TDO cellular assay (A172) pIC50 (TDO (A172 cells)) | IDO cellular assay (SKOV3) pIC50 (IDO (SKOV-3 cells)) | IC50 (TDO (A172 cells); read-out: TDO cellular assay (A172) pIC50 (converted)) [µM] | IC50 (IDO (SKOV-3 cells); read-out: IDO cellular assay (SKOV3) pIC50 (converted)) [µM]
O=C(NC1(c2ccc(F)cc2)COC1)c1cc2cc(Cl)ccc2[nH]1 [Compound 244] | − (− = pIC50 <4.50) | +++ (+++ = pIC50 ≥5.50) |  | 
Cc1cc(C)c2cc(C(=O)NCc3ccc(C)n3C)[nH]c2c1 [Compound 20] | − (− = pIC50 <4.50) | + (+ = pIC50 4.50-<5.00) |  | 
CC(NC(=O)c1cc2cc(Cl)ccc2[nH]1)c1ccc(C(=O)N2CCOCC2)cc1 (stereo not shown) [Compound 90] | − (− = pIC50 <4.50) | +++ (+++ = pIC50 ≥5.50) |  | 
Cc1ccnc(C(NC(=O)c2cc3cc(Cl)ccc3[nH]2)C2CC2)c1 (stereo not shown) [Compound 107] | − (− = pIC50 <4.50) | ++ (++ = pIC50 5.00-<5.50) |  | 
O=C(NC1CCOc2ccccc21)c1cc2ccccc2[nH]1 (stereo not shown) [Compound 74] | − (− = pIC50 <4.50) | + (+ = pIC50 4.50-<5.00) |  | 
CN(C)c1ncc2c(n1)CCC[C@H]2NC(=O)c1cc2cc(F)ccc2[nH]1 [Compound 8] | − (− = pIC50 <4.50) | + (+ = pIC50 4.50-<5.00) |  | 
CC(NC(=O)c1cc2ccc(C(F)F)cc2[nH]1)c1cnn(C)c1 (stereo not shown) [Compound 192] | − (− = pIC50 <4.50) | + (+ = pIC50 4.50-<5.00) |  | 
COc1ccc2[nH]c(C(=O)NC3(c4cnn(C)c4)CC3)cc2c1 [Compound 176] | − (− = pIC50 <4.50) | +++ (+++ = pIC50 ≥5.50) |  | 
O=C(NC1(c2ccccc2)COC1)c1cc2c(F)c(Cl)ccc2[nH]1 [Compound 220] | − (− = pIC50 <4.50) | +++ (+++ = pIC50 ≥5.50) |  | 
O=C(NC1(c2ccn(-c3ccccc3)n2)CC1)c1cc2cc(Cl)ccc2[nH]1 [Compound 143] | + (+ = pIC50 4.50-<5.00) | +++ (+++ = pIC50 ≥5.50) |  | 
O=C(NCc1ccc(F)cc1Cl)c1cc2ccccc2[nH]1 [Compound 31] | − (− = pIC50 <4.50) | + (+ = pIC50 4.50-<5.00) |  | 
CC(NC(=O)c1cc2cc(Cl)ccc2[nH]1)c1ccccc1 (stereo not shown) [Compound 25] | +++ (+++ = pIC50 ≥5.50) | +++ (+++ = pIC50 ≥5.50) |  | 
CN1CCC(C(NC(=O)c2cc3cc(Cl)ccc3[nH]2)c2ccccc2)CC1 (stereo not shown) [Compound 256] | + (+ = pIC50 4.50-<5.00) | + (+ = pIC50 4.50-<5.00) |  | 
O=C(NC1(c2cccnc2)CC1)c1cc2cc(Cl)ccc2[nH]1 [Compound 153] | − (− = pIC50 <4.50) | +++ (+++ = pIC50 ≥5.50) |  | 
Cn1cc(C2(NC(=O)c3cc4cc(Cl)c(F)cc4[nH]3)CC2)cn1 [Compound 204] | − (− = pIC50 <4.50) | +++ (+++ = pIC50 ≥5.50) |  | 
Cn1cc(C2(NC(=O)c3cc4cc(Cl)ccc4[nH]3)CC2)cn1 [Compound 141] |  |  | > 31.6 | ≤ 3.16
C[C@H](NC(=O)c1cc2cccc(F)c2[nH]1)c1ccccc1 [Compound 63] | + (+ = pIC50 4.50-<5.00) | + (+ = pIC50 4.50-<5.00) |  | 
C[C@@H](NC(=O)c1cc2cc(Cl)cc(F)c2[nH]1)c1ccccc1 [Compound 174] | ++ (++ = pIC50 5.00-<5.50) | +++ (+++ = pIC50 ≥5.50) |  | 
CC(C)c1noc(C(C)NC(=O)c2cc3cc(Cl)ccc3[nH]2)n1 (stereo not shown) [Compound 126] | − (− = pIC50 <4.50) | +++ (+++ = pIC50 ≥5.50) |  | 
CCc1ccc2[nH]c(C(=O)NC3(c4cnn(C)c4)CC3)cc2c1 [Compound 264] | − (− = pIC50 <4.50) | +++ (+++ = pIC50 ≥5.50) |  | 
Cn1cc(C2(NC(=O)c3cc4cc(Br)ccc4[nH]3)CC2)cn1 [Compound 263] | − (− = pIC50 <4.50) | +++ (+++ = pIC50 ≥5.50) |  | 
C[C@@H](NS(=O)(=O)c1cc2cc(F)ccc2[nH]1)c1ccccc1 [Compound 127] | − (− = pIC50 <4.50) | + (+ = pIC50 4.50-<5.00) |  | 
CC(NC(=O)c1cc2cc(Cl)c(F)cc2[nH]1)c1cnn(C)c1 (stereo not shown) [Compound 203] | + (+ = pIC50 4.50-<5.00) | ++ (++ = pIC50 5.00-<5.50) |  | 
O=C(NC1(c2ncccn2)CC1)c1cc2cc(Cl)ccc2[nH]1 [Compound 179] | − (− = pIC50 <4.50) | ++ (++ = pIC50 5.00-<5.50) |  | 
O=C(NC1(c2ccccc2)CC1)c1cc2cc(Cl)c(F)cc2[nH]1 [Compound 209] | ++ (++ = pIC50 5.00-<5.50) | +++ (+++ = pIC50 ≥5.50) |  | 

Further lines, results first:

TDO cellular assay (A172) pIC50 (TDO (A172 cells)) | IDO cellular assay (SKOV3) pIC50 (IDO (SKOV-3 cells)) | IC50 (TDO (A172 cells); read-out: TDO cellular assay (A172) pIC50 (converted)) [µM] | IC50 (IDO (SKOV-3 cells); read-out: IDO cellular assay (SKOV3) pIC50 (converted)) [µM] | Compound
− (− = pIC50 <4.50) | +++ (+++ = pIC50 ≥5.50) |  |  | COc1ccc2[nH]c(C(=O)NC3(c4ccccc4)COC3)cc2c1 [Compound 178]
− (− = pIC50 <4.50) | +++ (+++ = pIC50 ≥5.50) |  |  | Cc1nccc2c(NC(=O)c3cc4cc(F)ccc4[nH]3)cccc12 [Compound 120]
++ (++ = pIC50 5.00-<5.50) | +++ (+++ = pIC50 ≥5.50) |  |  | COCCOc1ccc(C(C)NC(=O)c2cc3cc(Cl)ccc3[nH]2)cc1 (stereo not shown) [Compound 100]
− (− = pIC50 <4.50) | ++ (++ = pIC50 5.00-<5.50) |  |  | CC(NC(=O)c1cc2cc(F)ccc2[nH]1)c1ccccn1 (stereo not shown) [Compound 42]
− (− = pIC50 <4.50) | +++ (+++ = pIC50 ≥5.50) |  |  | O=C(NCc1ccc(Cl)cc1)c1cc2ccccc2[nH]1 [Compound 9]
− (− = pIC50 <4.50) | ++ (++ = pIC50 5.00-<5.50) |  |  | COc1ccc2cc(C(=O)NC3(c4cnn(C)c4)CC3)[nH]c2c1 [Compound 167]
− (− = pIC50 <4.50) | +++ (+++ = pIC50 ≥5.50) |  |  | O=C(Nc1cccc2ncccc12)c1cc2cc(F)ccc2[nH]1 [Compound 41]
− (− = pIC50 <4.50) | + (+ = pIC50 4.50-<5.00) |  |  | C[C@@H](NC(=O)c1cc2cc(O)ccc2[nH]1)c1ccccc1 [Compound 181]
++ (++ = pIC50 5.00-<5.50) | +++ (+++ = pIC50 ≥5.50) |  |  | CC(C)(NC(=O)c1cc2cc(Cl)ccc2[nH]1)c1ccccc1 [Compound 68]
++ (++ = pIC50 5.00-<5.50) | +++ (+++ = pIC50 ≥5.50) |  |  | Cc1ccc2[nH]c(C(=O)NC(C)c3ccccc3)cc2c1 (stereo not shown) [Compound 26]
− (− = pIC50 <4.50) | +++ (+++ = pIC50 ≥5.50) |  |  | COc1ccc2cc(C(=O)Nc3cccc4ncccc34)[nH]c2c1 [Compound 7]
++ (++ = pIC50 5.00-<5.50) | + (+ = pIC50 4.50-<5.00) |  |  | C[C@H](NC(=O)c1cc2cc(F)ccc2[nH]1)c1ccccc1 [Compound 40]
+ (+ = pIC50 4.50-<5.00) | +++ (+++ = pIC50 ≥5.50) |  |  | CC(C)Oc1ccc2[nH]c(C(=O)N[C@H](C)c3ccccc3)cc2c1 [Compound 260]

Reference: patent US10167257B2, “Indole derivatives for use in medicine” (IOmet Pharma Ltd., priority 2014, dated 2019)
